Source: PMC11904713 (ACS Omega, 2025)
pIC50: −log10 of the molar value. Converted amounts (≈) assume the structure as drawn. Like-named read-outs stand apart in the source and are kept apart here.

Assays:
eAChE = conditions: read-out: IC50 against eAChE, cited from earlier work
rat cerebral cortex AChE = conditions: read-out: IC50, rat cerebral cortex AChE; cited from earlier work
AChE [1] = conditions: cited from earlier work
[2] = pH 7.3 (physiological pH); cited from earlier work
BChE [3] = target: T1, BChE (Homo sapiens, UniProt P06276); conditions: previous study; cited from earlier work
T1 sequence (P06276 29-602): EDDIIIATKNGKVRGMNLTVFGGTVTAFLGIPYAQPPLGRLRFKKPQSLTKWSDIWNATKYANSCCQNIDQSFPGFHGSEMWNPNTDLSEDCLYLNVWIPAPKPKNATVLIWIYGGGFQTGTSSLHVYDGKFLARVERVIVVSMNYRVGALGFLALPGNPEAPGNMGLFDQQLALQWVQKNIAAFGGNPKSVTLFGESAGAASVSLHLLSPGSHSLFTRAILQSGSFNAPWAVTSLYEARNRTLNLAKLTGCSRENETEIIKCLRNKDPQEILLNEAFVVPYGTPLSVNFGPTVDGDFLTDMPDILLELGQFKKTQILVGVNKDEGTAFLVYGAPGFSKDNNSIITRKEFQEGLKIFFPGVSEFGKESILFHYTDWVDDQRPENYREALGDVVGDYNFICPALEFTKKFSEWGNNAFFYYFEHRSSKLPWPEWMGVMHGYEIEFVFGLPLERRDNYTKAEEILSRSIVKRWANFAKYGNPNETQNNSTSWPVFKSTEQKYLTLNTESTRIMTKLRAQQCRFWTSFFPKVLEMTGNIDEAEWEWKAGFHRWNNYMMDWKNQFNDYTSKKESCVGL

BChE [4] = target: T1, BChE; experiment: BChE inhibition by IPA; type: biochemical; conditions: data not shown
AChE [5] = experiment: AChE inhibition by IPA; type: biochemical; conditions: data not shown
[6] = ABTS radical scavenging activity; conditions: read-out: IC50, ABTS radical scavenging
FRAP activity = conditions: CUR-IPA 50 to 250 μM; ascorbic acid 2 to 10 μM
[7] = DPPH radical scavenging activity; conditions: read-out: IC50, DPPH radical scavenging

With `COc1cc(C=CC(=O)CC(=O)C=Cc2ccc(O)c(OC)c2)ccc1O` [CUR, 1,7-bis(4-hydroxy-3-methoxyphenyl)-1,6-heptadiene-3,5-dione] as the compound, how does the pIC50 (eAChE; another study) read?
Its pIC50 is 4.17.

And the pIC50 (eAChE; previous study)?
The pIC50 was 4.29.

And the pIC50 (rat cerebral cortex AChE)?
Its pIC50 is 5.00.

And the “effect on AChE activity in the ex vivo model” value (AChE [1])?
The value was “did not affect AChE activity”.

What about the solubility [2] of the same compound?
Its solubility is 0.4 µg/mL (≈ 1.09 µM).

What about the “inhibition against BChE” value (BChE [3]) of the same compound?
Its value is “did not show inhibition”.

With `O=C(O)CCc1c[nH]c2ccccc12` [IPA, Indole-3-propionic acid] as the compound, how does the “concentration showing inhibition against BChE” value (BChE [4]) read?
Its value is at least 500 µM.

What about the “concentration showing inhibition against AChE” value (AChE [5]) of the same compound?
The value was at least 500 µM.

With `O=C1O[C@H]([C@@H](O)CO)C(O)=C1O` [ascorbic acid] as the compound, how does the pIC50 [6] read?
The pIC50 was 4.80.

And the FRAP activity (FRAP activity)?
Its FRAP activity is “present linearly”.

And the pIC50 [7]?
The pIC50 was 4.46.
